What was measured:
[1] = test system: hyperreactive spasmus induced by acetylcholine challenge; assay: Hyperreactive spasmus induced by acetylcholine challenge in anaesthetized guinea-pigs submitted to forced tobacco-smoking respiration; type: in vivo; settings: for activity as reference substance in the acetylcholine challenge procedure: i.m. administration
[2] = test system: tracheo-bronchial mucus secretion; assay: Red phenol secretion in BAL (mucus secretion); type: in vivo, Albino Swiss male mice
Procedure: (§1) The ability of a drug to modify the tracheo-bronchial mucus secretion is evaluated measuring the excretion of a dyestuff in the respiratory tree.
(§2) Albino Swiss male mice are used in this test and the animals are killed 30 minutes after dye treatment. The dye content in BAL's is evaluated spectrometrically at 546 nm.
An increased red phenol secretion in BAL's after drug treatment means stimulation of mucus production.

[3] = test system: tracheo-bronchial mucus secretion; assay: Uranine secretion in BAL (mucus secretion); type: in vivo, Albino Swiss female mice
Procedure: as §1
The animals are sacrified 30 minutes after; the respiratory tree is excised and accurately washed. The washing fluids (BAL) are collected and evaluated for the uranine content using a spectrofluorimetric technique.
as §2

[4] = test system: tracheo-bronchial mucus secretion; assay: Time-course of red phenol excretion (long-lasting action); type: in vivo, Albino Swiss male mice
Procedure: as §2
Infact, a substance can be administered 2, 1 and 1/2 hours before the intraperitoneal administration of the red phenol marker. If the animals are killed, as usual, half an hour after the dyestuff treatment, the overall time of drug action increases from 1 hr to 11/2 and 21/2 hrs respectively.

[5] = test system: tracheo-bronchial mucus secretion; settings: known effect of therapeutically active drugs; cited from earlier work
[6] = 100 mg/kg os, overall experiment 1 1/2 hours
[7] = 100 mg/kg os, overall experiment 2 1/2 hours
[8] = 100 mg/kg os, overall experiment 1 hour

C[C@H]1C[C@@H]2[C@H]([C@@H](O)C[C@@]3(C)[C@H]2CC[C@]3(O)C(=O)CO)[C@@]2(C)C=CC(=O)C=C12 [6-α-methylprednisolone]
activity as reference substance in the acetylcholine challenge procedure [1]: Positive

COc1ccccc1OCCSCC(=O)O [Substance A, 3-thia-5-(2-methoxy-phenoxy)-pentanoic acid]
% increase of dyestuff secretion in BAL (vs. untreated animals), red phenol ([2]; 25 mg/kg os): 25%
% increase of dyestuff secretion in BAL (vs. untreated animals), red phenol ([2]; 50 mg/kg os): 50%
% increase of dyestuff secretion in BAL (vs. untreated animals), red phenol ([2]; 100 mg/kg os): 104%
% increase of dyestuff secretion in BAL (vs. untreated animals), uranine ([3]; 25 mg/kg os): 45%
% increase of dyestuff secretion in BAL (vs. untreated animals), uranine ([3]; 50 mg/kg os): 98%
% increase of dyestuff secretion in BAL (vs. untreated animals), uranine ([3]; 100 mg/kg os): 138%
Time-course of % increase of red phenol excretion (vs. untreated animals) [4, 6]: 98%
Time-course of % increase of red phenol excretion (vs. untreated animals) [4, 7]: 62%
Time-course of % increase of red phenol excretion (vs. untreated animals) [4, 8]: 104%

COc1ccccc1OCCSCC(=O)NCc1cccnc1 [Substance B, N-(3-pyridyl)methy 1-3-thia-5 (2-methoxy-phenoxy)pentanoic acid amide]
% increase of dyestuff secretion in BAL (vs. untreated animals), red phenol ([2]; 25 mg/kg os): 12%
% increase of dyestuff secretion in BAL (vs. untreated animals), red phenol ([2]; 50 mg/kg os): 73%
% increase of dyestuff secretion in BAL (vs. untreated animals), red phenol ([2]; 100 mg/kg os): 126%
% increase of dyestuff secretion in BAL (vs. untreated animals), uranine ([3]; 25 mg/kg os): 70%
% increase of dyestuff secretion in BAL (vs. untreated animals), uranine ([3]; 50 mg/kg os): 140%
% increase of dyestuff secretion in BAL (vs. untreated animals), uranine ([3]; 100 mg/kg os): 190%
Time-course of % increase of red phenol excretion (vs. untreated animals) [4, 6]: 119%
Time-course of % increase of red phenol excretion (vs. untreated animals) [4, 7]: 62%
Time-course of % increase of red phenol excretion (vs. untreated animals) [4, 8]: 126%
reduction of hyperreactive spasmus induced by acetylcholine challenge ([1]; e.v. treatment, 5 to 30 mg/kg, forced tobacco-smoking respiration): able to reduce the hyperreactive spasmus induced by acetylcholine challenge in dose dependent way

COc1ccccc1OCC1COC(CSCC(=O)O)O1 (centres unmarked) [Substance C, 3-thia-4-[4-(2-methoxy-phenoxy)methyl-(Z,E)-dioxolan-2-yl]-butanoic acid]
% increase of dyestuff secretion in BAL (vs. untreated animals), red phenol ([2]; 25 mg/kg os): 47%
% increase of dyestuff secretion in BAL (vs. untreated animals), red phenol ([2]; 50 mg/kg os): 83%
% increase of dyestuff secretion in BAL (vs. untreated animals), red phenol ([2]; 100 mg/kg os): 143%
% increase of dyestuff secretion in BAL (vs. untreated animals), uranine ([3]; 25 mg/kg os): 25%
% increase of dyestuff secretion in BAL (vs. untreated animals), uranine ([3]; 50 mg/kg os): 52%
% increase of dyestuff secretion in BAL (vs. untreated animals), uranine ([3]; 100 mg/kg os): 101%
Time-course of % increase of red phenol excretion (vs. untreated animals) [4, 6]: 72%
Time-course of % increase of red phenol excretion (vs. untreated animals) [4, 7]: 42%
Time-course of % increase of red phenol excretion (vs. untreated animals) [4, 8]: 143%

COc1ccccc1OCC1COC(CSCC(=O)NCc2cccnc2)O1 (centres unmarked) [Substance D, N-(3-pyridyl)methyl-3-thia-4-[4-(2-methoxy-phenoxy)-methyl-(Z,E)-(1,3)-dioxolan-2-yl]-butanoic acid amide]
% increase of dyestuff secretion in BAL (vs. untreated animals), red phenol ([2]; 25 mg/kg os): 49%
% increase of dyestuff secretion in BAL (vs. untreated animals), red phenol ([2]; 50 mg/kg os): 120%
% increase of dyestuff secretion in BAL (vs. untreated animals), red phenol ([2]; 100 mg/kg os): 179%
% increase of dyestuff secretion in BAL (vs. untreated animals), uranine ([3]; 25 mg/kg os): 66%
% increase of dyestuff secretion in BAL (vs. untreated animals), uranine ([3]; 50 mg/kg os): 132%
% increase of dyestuff secretion in BAL (vs. untreated animals), uranine ([3]; 100 mg/kg os): 284%
Time-course of % increase of red phenol excretion (vs. untreated animals) [4, 6]: 111%
Time-course of % increase of red phenol excretion (vs. untreated animals) [4, 7]: 58%
Time-course of % increase of red phenol excretion (vs. untreated animals) [4, 8]: 179%

CN(Cc1cc(Br)cc(Br)c1N)C1CCCCC1 [Substance E, bromexine, reference compound]
% increase of dyestuff secretion in BAL (vs. untreated animals), red phenol ([2]; 25 mg/kg os): 28%
% increase of dyestuff secretion in BAL (vs. untreated animals), red phenol ([2]; 50 mg/kg os): 69%
% increase of dyestuff secretion in BAL (vs. untreated animals), red phenol ([2]; 100 mg/kg os): 83%
% increase of dyestuff secretion in BAL (vs. untreated animals), uranine ([3]; 25 mg/kg os): 0%
% increase of dyestuff secretion in BAL (vs. untreated animals), uranine ([3]; 50 mg/kg os): 50%
% increase of dyestuff secretion in BAL (vs. untreated animals), uranine ([3]; 100 mg/kg os): 63%
Time-course of % increase of red phenol excretion (vs. untreated animals) [4, 6]: 61%
Time-course of % increase of red phenol excretion (vs. untreated animals) [4, 7]: 21%
Time-course of % increase of red phenol excretion (vs. untreated animals) [4, 8]: 98%
uranine content in the BAL's in respect to control values (in words) [5]: increase the uranine content in the BAL's in a dose dependent way

CC1=CCC(C(C)(C)O)CC1O (centres unmarked) [Substance F, sobrerol, reference compound]
% increase of dyestuff secretion in BAL (vs. untreated animals), red phenol ([2]; 50 mg/kg os): 48%
% increase of dyestuff secretion in BAL (vs. untreated animals), red phenol ([2]; 100 mg/kg os): 69%
% increase of dyestuff secretion in BAL (vs. untreated animals), red phenol ([2]; 200 mg/kg os): 111%
% increase of dyestuff secretion in BAL (vs. untreated animals), uranine ([3]; 50 mg/kg os): 54%
% increase of dyestuff secretion in BAL (vs. untreated animals), uranine ([3]; 100 mg/kg os): 104%
% increase of dyestuff secretion in BAL (vs. untreated animals), uranine ([3]; 200 mg/kg os): 144%
Time-course of % increase of red phenol excretion (vs. untreated animals) ([4]; 200 mg/kg os, overall experiment 1 1/2 hours): 73%
Time-course of % increase of red phenol excretion (vs. untreated animals) ([4]; 200 mg/kg os, overall experiment 2 1/2 hours): 30%
Time-course of % increase of red phenol excretion (vs. untreated animals) ([4]; 200 mg/kg os, overall experiment 1 hour): 108%
uranine content in the BAL's in respect to control values (in words) [5]: increase the uranine content in the BAL's in a dose dependent way

O=C(O)c1cc(=O)c2c(OCC(O)COc3cccc4oc(C(=O)O)cc(=O)c34)cccc2o1 [sodium dichromoglicate]
activity as reference substance in the acetylcholine challenge procedure [1]: Positive
